System: histamine induced oedema
Experiment: Histamine induced paw oedema (rat histamine paw oedema test)
Assay type: in vivo, rat (male Sprague-Dawley)
Settings: at 1 mg/kg, intraperitoneally 15 minutes before the anaesthetics, histamine 50 microliter, 3 mg/ml in right hind paw, swelling 20 minutes after histamine
Procedure: Compounds of formula I may be used to treat all painful, hyperalgesic and/or inflammatory conditions in which C-fibres play a pathophysiological role by eliciting neurogenic pain or inflammation, i. e.:
I. Histamine induced paw oedema
The rat histamine paw oedema test was performed essentially as described by Amann et al. (Europ. J. Pharmacol. 279, 227-231, 1995). In brief 250-300 g male Sprague-Dawley rats were anaesthetized with pentobarbital sodium, and placed on a 32 degree(Celsius) heated table. Ten minutes later histamine (50 micoliter, 3 mg/ml) was injected in the right hind paw and 20 minutes hereafter the paw swelling was determined by water plethysmography (Ugo Basile). Test compounds were administered intraperitoneally at 15 minutes before the anaesthetics.

| Structure (SMILES) | % oedema inhibition (inhibition of histamine induced oedema) [%] |
| --- | --- |
| Cl.O=C(O)C1CCN(CC=C2c3ccccc3CSc3ccccc32)CC1 [Example 2, 1-(2-(6,11-Dihydrodibenzo[b,e]thiepin-11-ylidene)-1-ethyl)-4-piperidinecarboxylic acid hydrochloride] | 51 |
| Cl.O=C(O)[C@H]1CCCCN1CC=C1c2ccccc2CCc2ccccc21 [Example 12, (R)-1-(2-(10,11-dihydro-5H-dibenzo[a,d]cyclohepten-5-ylidene)-1-ethyl)-2-piperidinecarboxylic acid hydrochloride] | 49 |
